# Measured values taken from paper PMC7369637, “Inhibition of Resistance-Refractory P. falciparum Kinase PKG Delivers Prophylactic, Blood Stage, and Transmission-Blocking Antiplasmodial Activity” (Cell Chemical Biology, 2020).
# pIC50, pKd: −log10 of the molar value. Like-named read-outs stand apart in the source and are kept apart here.
# Assays:
# Pf Dd2-B2 ABS parasites = experiment: 72-h asexual blood stage (ABS) growth inhibition assay, Dd2-B2; format: cell-based, Plasmodium falciparum
# Description: Synchronicity was achieved using three rounds of sorbitol treatment on early rings, spaced 48 h apart, followed by magnetic purification of segmented schizonts following the final sorbitol treatment. Parasites were highly synchronous to within a 3 h window of development. Assays were repeated on at least three independent occasions (each with technical duplicates) and statistical significance was assessed using Mann Whitney U tests.
# [1] = system: phosphoproteome of Dd2-B2 Pf schizonts; experiment: Phosphoproteomics of Dd2-B2 schizonts exposed to 1200 nM MMV030084 for 3 h; format: cell-based, Plasmodium falciparum; settings: 1,200 nM, vs untreated
# Description: Red blood cells were lysed by 0.1% saponin in washing buffer (20 mM β-glycerophosphate, 1 tablet of cOmplete protease inhibitor cocktail (Roche), and 1 tablet of PhosSTOP phosphatase inhibitor (Roche) per 10 ml PBS). Parasites were subsequently washed three times in washing buffer. Parasite pellets were stored at -80°C until all samples from two independently repeated exposure experiments were collected. Proteins were extracted from schizont pellets by sonication and lysis in Tris-EDTA buffer (10 mM Tris-HCl, 5 mM EDTA, 20 mM ß-glycerolphosphate; pH 7.4, 1% NP-40, 2% CHAPS) followed by reduction of disulfide bonds and alkylation. Samples were digested with trypsin at a ratio of 1:15 (w/w) trypsin and proteins concentrated using S-trap columns (ProtiFi) for 1 h at 47°C. For tandem mass tag (TMT) labelling, digested samples were incubated with TMTsixplex reagents (Thermo Scientific). All labeled samples were pooled together, loaded onto an anion-exchange column, and fractionated on an AKTA purifier (GE Healthcare). The fractions were concentrated and phosphopeptides were enriched using titanium dioxide (TiO2) and immobilized metal affinity chromatography (IMAC). […] We also analyzed the peptide sequences for patterns that conformed to the previously established PfPKG consensus motif K/RR/KxpS/pT and the PfPKA consensus motif K/RxxpS/pT ([Francis et al., 2010]).
# [2] = target: putative amino acid transporter (AAT) (PF3D7_1231400) (Plasmodium falciparum, UniProt Q8I5A6); experiment: Competitive chemoproteomics in Pf lysates (Kinobeads / bead-immobilized compound); format: binding; settings: lysates exposed to 40 μM of the same compound vs vehicle
# Chain of putative amino acid transporter (AAT) (PF3D7_1231400) (Q8I5A6 entry or part of it): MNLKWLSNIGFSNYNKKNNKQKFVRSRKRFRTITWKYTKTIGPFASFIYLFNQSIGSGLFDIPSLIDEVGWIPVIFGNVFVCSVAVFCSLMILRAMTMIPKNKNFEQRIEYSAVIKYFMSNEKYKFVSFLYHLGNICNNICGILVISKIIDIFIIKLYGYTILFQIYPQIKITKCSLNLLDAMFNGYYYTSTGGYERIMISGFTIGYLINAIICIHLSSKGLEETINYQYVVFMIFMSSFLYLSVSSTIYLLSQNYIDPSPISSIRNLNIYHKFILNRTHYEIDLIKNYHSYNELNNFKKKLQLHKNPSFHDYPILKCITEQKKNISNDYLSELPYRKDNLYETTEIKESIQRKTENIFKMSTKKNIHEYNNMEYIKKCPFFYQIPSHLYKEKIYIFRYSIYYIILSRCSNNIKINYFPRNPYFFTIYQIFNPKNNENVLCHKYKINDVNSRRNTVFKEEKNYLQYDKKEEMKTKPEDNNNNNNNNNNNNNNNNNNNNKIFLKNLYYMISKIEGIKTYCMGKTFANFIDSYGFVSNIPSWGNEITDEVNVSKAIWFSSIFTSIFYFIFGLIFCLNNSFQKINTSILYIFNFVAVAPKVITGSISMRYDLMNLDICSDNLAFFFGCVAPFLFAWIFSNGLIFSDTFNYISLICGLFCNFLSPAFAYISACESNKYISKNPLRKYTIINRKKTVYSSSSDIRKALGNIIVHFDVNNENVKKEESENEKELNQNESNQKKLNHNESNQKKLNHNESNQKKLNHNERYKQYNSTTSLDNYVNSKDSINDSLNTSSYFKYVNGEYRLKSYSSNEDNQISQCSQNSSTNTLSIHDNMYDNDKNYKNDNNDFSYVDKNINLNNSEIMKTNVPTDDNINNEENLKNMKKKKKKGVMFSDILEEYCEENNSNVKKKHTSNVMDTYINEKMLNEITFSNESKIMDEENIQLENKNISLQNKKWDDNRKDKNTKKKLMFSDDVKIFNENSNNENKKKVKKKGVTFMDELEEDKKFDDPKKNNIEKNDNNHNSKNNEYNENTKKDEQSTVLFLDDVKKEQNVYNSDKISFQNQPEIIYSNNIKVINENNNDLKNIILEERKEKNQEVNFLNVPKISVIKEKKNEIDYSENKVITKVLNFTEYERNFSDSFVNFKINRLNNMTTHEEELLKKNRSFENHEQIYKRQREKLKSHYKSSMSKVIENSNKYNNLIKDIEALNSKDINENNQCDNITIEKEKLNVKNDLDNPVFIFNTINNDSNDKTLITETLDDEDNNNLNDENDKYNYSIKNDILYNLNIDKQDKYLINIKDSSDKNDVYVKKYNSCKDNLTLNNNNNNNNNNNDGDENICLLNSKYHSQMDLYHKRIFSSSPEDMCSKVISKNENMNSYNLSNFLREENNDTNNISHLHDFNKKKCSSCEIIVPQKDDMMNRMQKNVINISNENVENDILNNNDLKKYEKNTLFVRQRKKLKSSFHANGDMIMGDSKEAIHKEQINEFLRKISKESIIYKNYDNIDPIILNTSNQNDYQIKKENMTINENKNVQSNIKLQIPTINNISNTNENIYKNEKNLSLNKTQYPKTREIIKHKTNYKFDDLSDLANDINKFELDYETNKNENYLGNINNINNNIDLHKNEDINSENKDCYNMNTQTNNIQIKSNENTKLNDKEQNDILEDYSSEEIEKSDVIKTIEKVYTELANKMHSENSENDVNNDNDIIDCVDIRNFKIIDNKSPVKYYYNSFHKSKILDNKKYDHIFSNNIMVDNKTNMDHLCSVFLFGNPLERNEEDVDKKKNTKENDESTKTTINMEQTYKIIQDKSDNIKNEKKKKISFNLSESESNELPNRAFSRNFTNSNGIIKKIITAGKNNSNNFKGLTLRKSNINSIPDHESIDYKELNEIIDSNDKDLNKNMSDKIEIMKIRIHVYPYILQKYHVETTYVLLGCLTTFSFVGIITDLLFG
# Description: (§1) Pf protein extracts were prepared as described elsewhere ([Paquet et al., 2017]). Parasite cultures at the trophozoite stage were harvested, washed twice in RPMI 1640 medium (Gibco), and lysed by the addition of saponin to a final concentration of 0.1% for 5 min at room temperature. Free parasites were sedimented by centrifugation (3500 rpm for 10 min), washed three times with phosphate-buffered saline, and stored at −80°C. Parasites were resuspended in cell lysis buffer (50 mM tris-HCl (pH 7.5), 5% glycerol, 1.5 mM MgCl2, […], 1 mM […], 25 mM sodium fluoride, 0.8% NP-40, EDTA-free protease inhibitor cocktail tablets (Roche Diagnostics), and 1 mM DTT) and disrupted by sonication (Sonics Vibra-Cell) using two 30-s cycles on ice at half-amplitude. After centrifugation (140,000g for 1 h at 4°C), soluble proteins were recovered from the supernatants, and protein concentrations of each sample were estimated using the Lowry-based DC assay (Bio-Rad). Samples were stored at −80°C until use.
# (§2) Kinobeads were prepared by immobilizing Bis-(III) indolyl-maleimide, purvalanol B, staurosporine and CZC8004, and the analogs of PD173955, sunitinib and vandetanib on NHS-activated Sepharose 4 beads (Amersham) ([Bantscheff et al., 2007]). […] The chemoproteomic affinity-capturing experiments were performed as previously described ([Bantscheff et al., 2011]). Briefly, beads were washed and equilibrated in lysis buffer (50 mM Tris-HCl, pH 7.4, 0.4 % Igepal-CA630, 1.5 mM MgCl2, 5 % Glycerol, 150 mM NaCl, 25 mM NaF, 1 mM Na3VO4, 1 mM DTT, and one cOmplete EDTA-free protease inhibitor tablet (Roche) per 25 mL). The beads were incubated at 4°C for 1 h with either 0.1 ml (0.3 mg) Pf blood stage extract or 0.5 mL (2.5 mg) human cell/tissue protein extract (a mixture of HEK-293, K-562, Hep G2 , and placental cells), which was pre-incubated with compound or DMSO (vehicle control). 10 samples were measured in parallel (TMT 10-plex ([Werner et al., 2014])) to generate values for the affinity of the beads to the bound proteins (“depletion” values, 4 samples) and to generate IC50 values (6 samples) in a single experiment. Apparent dissociation constants were determined after accounting for protein depletion by the beads ([Bantscheff et al., 2011]). Beads were transferred to Filter plates (Durapore PVDF membrane, Merck Millipore), washed with lysis buffer, and eluted with SDS sample buffer.
# (§3) Proteins were digested according to a modified single pot solid-phase sample preparation (SP3) protocol ([Hughes et al., 2014]). Peptides were labeled with isobaric mass tags (Thermo Fisher Scientific, Waltham, MA) using 10-plex TMT reagents, enabling relative quantification of 10 conditions in a single experiment ([Werner et al., 2014]). The labeling reactions and LC-MS/MS measurements using Q Exactive Orbitrap or Orbitrap Fusion Lumos mass spectrometers (Thermo Fisher Scientific) were performed as described elsewhere ([Sridharan et al., 2019]). Mascot 2.4 (Matrix Science, Boston, MA) was used for protein identification by using a 10 parts per million mass tolerance for peptide precursors and 20 mD (HCD) mass tolerance for fragment ions. To create the fasta file for mascot searching, all proteins corresponding to the taxonomy ‘Plasmodium falciparum (isolate 3D7)’ were downloaded from Uniprot (release 20170621) and supplemented with common contaminant protein sequences of bovine serum albumin, porcine trypsin and mouse, rat, sheep and dog keratins. To assess the false discovery rate (FDR), “decoy” proteins (reverse of all protein sequences) were created and added to the database, resulting in a database containing a total of 14266 protein sequences, with 50% forward and 50% reverse. For peptide and protein identification of human proteins see ([Sridharan et al., 2019]). […]
# [3] = target: T1, calcium-dependent protein kinase 1 (CDPK1) (PF3D7_0217500) (Plasmodium falciparum, UniProt P62344); experiment: as above; format: binding; settings: for pKd: read-out: Kdapp, CDPK1
# T1 construct: endogenous in cells; host or cells: P. falciparum asexual blood-stage parasites (trophozoite stage)
# T1 sequence (P62344 whole entry): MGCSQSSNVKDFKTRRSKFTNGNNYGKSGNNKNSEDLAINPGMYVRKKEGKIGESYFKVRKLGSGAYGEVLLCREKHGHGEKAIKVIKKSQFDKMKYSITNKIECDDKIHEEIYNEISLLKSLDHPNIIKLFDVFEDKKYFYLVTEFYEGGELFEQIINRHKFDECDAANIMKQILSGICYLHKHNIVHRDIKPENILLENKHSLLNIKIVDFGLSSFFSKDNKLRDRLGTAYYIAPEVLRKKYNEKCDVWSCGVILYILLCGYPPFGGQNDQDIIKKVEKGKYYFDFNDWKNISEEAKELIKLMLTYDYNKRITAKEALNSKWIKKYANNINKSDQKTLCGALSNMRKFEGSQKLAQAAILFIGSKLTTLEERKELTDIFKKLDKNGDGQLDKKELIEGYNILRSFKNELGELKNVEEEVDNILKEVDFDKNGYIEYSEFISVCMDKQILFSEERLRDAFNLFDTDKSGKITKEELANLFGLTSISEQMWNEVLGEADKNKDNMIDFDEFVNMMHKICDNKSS
# Description: as §1, §2, §3
smiles,measurement,setting,value
CC(C)(CN)c1nc(-c2ccc(Cl)c(O)c2)c(-c2ccncc2)[nH]1 [MMV030084],pIC50,"Pf Dd2-B2 ABS parasites; Plasmodium falciparum, DD2, 72 h, read-out: Mean IC50, 72 h ABS activity, Dd2-B2 wild-type, 72 h",6.92
same,pIC50,"Pf Dd2-B2 ABS parasites; read-out: Mean IC50, 72 h ABS activity, Dd2-B2 wild-type, 72 h",6.92
same,Number of proteins with increased phosphorylation levels,[1],15
same,Number of proteins with phosphorylation status reduced by more than 35%,[1],16
same,AAT pull-down by bead-bound compound,[2],pulled down
same,pKd,[3]; '084-beads (bead-immobilized MMV030084),6.66
same,pKd,[3]; Kinobeads,6.67
same,pKd,"[3]; five independent experiments, lowest tested concentration 0.1 μM",> 7.00
same,CDPK1 pull-down by bead-bound compound,[3]; lysates exposed to 40 μM of the same compound vs vehicle,pulled down
same,pKd,[3]; two follow-up experiments with lower concentrations,6.66 to 6.67
